From patent US20030082787A1, “Plant histidine biosynthetic enzymes” (priority 2001, published 2003)

Test system: HisA enzyme from Nicotiana Plumbaginifolia
Experiment: HisA enzyme activity assay (INT/PMS dye, absorbance at 530 nm)
Assay type: biochemical
Conditions: partially purified recombinant enzyme expressed in E. coli BL21 (DE3); 0.2 M Triethanolamine pH 8.5, 30° C.; read-out: Km for substrate
Description: The HisA enzyme from Nicotiana Plumbaginifolia was partially purified and assayed as follows. A plasmid clone with the cDNA insert in the correct orientation relative to the T7 promoter was transformed into E. coli strain BL21 (DE3) (Studier et al. (1986) J. Mol. Biol. 189:113-130). Cultures are grown in LB medium carbenicillin ([…]) at 28° C. to an optical denisity of 0.44 at 600 nm. Each liter of LB/carbenicillin was inoculated with 20 mL of the overnight culture. These one liter cultures were incubated at 26° C. with agitation for 21 hours. HisA expression was induced as described above. The cells were harvested by centrifugation and frozen at −80° C.
Each gram of cell paste was resuspended in two milliliters of 20 mM Triethanolamine buffer at pH 8.3 containing Complete™ protease inhibitors (Boehringer Mannheim) and 1 mM EDTA. The cells were disrupted by three passes through a microfluidizer and the lysed cell debris was removed by centrifugation. The supernatant was treated with streptomycin sulfate which was added to a final concentration of 1%. […]
HisA enzyme activity was assayed essentially as described by Margolies et al., (1966) J. Biol. Chem. 241:3262-3269. […] Blank reactions containing either no enzyme or no substrate were also prepared to control for background absorbance. […] The absorbance at 530 nm was measured.

SMILES: NC(=O)c1ncn([C@@H]2O[C@H](COP(=O)(O)O)[C@@H](O)[C@H]2O)c1N=CN[C@@H]1O[C@H](COP(=O)(O)O)[C@@H](O)[C@H]1O [5′ Profar, N1-[(5′-phospho-b-D-ribosyl)formimino]-5-aminoimidazole-4-carboxamide ribonucleotide]
- Km: 200 µM
